This note sets out measurements from PubChem BioAssay (NCI).

Where “and” joins values, the source holds several entries; their conditions need not be identical. Equal values may be shown once.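 Cultured in 96-well plates, cells were exposed to test compound for 48 hours across five concentrations. Abbreviation: GI50, concentration required for 50% inhibition of growth. Definition used: TGI = concentration required for complete inhibition of growth.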

Common to all, as to assay: NCI tumour cell line growth inhibition, 48 h
Test [1] relates to A549 NSCLC.
Test [2] has as its system ACHN renal.
Test [3] concerns CCRF-CEM leukemia.
For test [4], the system named is DU-145 prostate.
The subject of test [5] is HL-60(TB) leukemia.
Test [6] has as its system HOP-62 NSCLC.
Test [7] concerns LOX IMVI melanoma.
Test [8] has as its system MDA-MB-231 breast.
Test [9] deals with MDA-MB-435.
The test system of test [10] is SW-620 colon.

With `CCOC(=O)C1=C(C)N2C(=NC3=C(CCC/C3=C\c3ccc(Cl)cc3)C2c2ccc(Cl)cc2)S1` (centres undefined), the GI50 in [1] was 2.08 µM; in test [2] it was 3.64 µM; in test [3], 2.59 µM; in test [4], 3.92 µM; in test [5], 3.09 µM; in [6] it was 2.55 µM. The GI50 in test [7] was 1.75 µM; in [8] it was 3.06 µM; in test [9], 2.93 µM; in test [10], 2.44 µM. In addition, the TGI in test [1] was 5.13 µM; in [2], 33.6 µM; in test [3], 7.87 µM; in [4], 17.6 µM; in test [5], 9.24 µM; in test [6] it was 5.38 µM. Further, the TGI was determined as 3.15 µM in [7], 16.6 µM in test [8], 14.2 µM in [9] and 6.39 µM in [10].
As for `CC1=C(Cl)C[C@@H](/C(C)=C\Cl)O[C@@]1(O)C(Br)Br`, the TGI in test [1] was 60.3 µM; in test [2], 75 µM; in test [3] it was 57.5 µM; in test [4], 49.9 µM; in test [5], 38.1 µM; in test [6], greater than 100 µM. Besides, the TGI is greater than 100 µM in test [7], 41.7 µM in test [8], greater than 100 µM in test [9] and greater than 100 µM in test [10].
For `C=CCn1c(=O)c2cnc(Nc3ccc(N4CCN(C)CC4)cc3)nc2n1-c1cccc(C(C)(C)O)n1`, the GI50 in test [1] is 1.14 µM and 1.47 µM; in [2] it was 0.075 µM and 0.226 µM; in test [3], 0.271 µM and 0.294 µM; in test [4], 0.872 µM and 0.678 µM; in test [5], 0.272 µM and 0.325 µM; in test [6], 1.4 µM and 0.802 µM. In addition, the GI50 is 0.433 µM and 0.537 µM in test [7]; 1.33 µM and 0.624 µM in [8]; 0.201 µM and 0.247 µM in test [9]; 0.316 µM and 0.448 µM in test [10]. For the same molecule, the TGI in test [1] was 11.4 µM and > 10 µM; in test [2], greater than 100 µM; in test [4] it was 18 µM and > 10 µM; in test [5], 1.35 µM and > 3.11 µM; in test [6] it was 14.4 µM and > 10 µM; in test [7], 6.06 µM and > 7.93 µM. In addition, the TGI was 27.4 µM and > 7.83 µM in test [8]; 0.561 µM and 0.666 µM in test [9]; 12.3 µM and > 10 µM in test [10].
In the case of `CC1=C(C(=O)Nc2ccc(F)c(Cl)c2)C(c2ccccc2O)NC(=O)N1` (centres undefined), the GI50 in test [1] is greater than 100 µM; in test [2], greater than 100 µM; in test [3] it was 59.9 µM; in [4], greater than 100 µM; in [5] it was 59.6 µM; in test [6], greater than 100 µM. The GI50 in [7] was 80.5 µM; in test [8], 27.4 µM; in test [9], greater than 100 µM; in [10] it was greater than 100 µM. In addition, the TGI in test [1], in [2], in [3], in test [4], in test [5] and in test [6] was greater than 100 µM in each case. The TGI in test [7], in test [8], in test [9] and in test [10] was greater than 100 µM each time.
With `NNc1c2ccccc2nc2ccccc12`, the GI50 is 5.29 µM in test [1]; 5.31 µM in test [2]; 0.688 µM in test [3]; 10.9 µM in test [4]; 1.78 µM in [5]; 5.56 µM in test [6]. The GI50 in [7] is 3.62 µM; in test [8], 10.7 µM; in test [9], 5.08 µM; in [10], 4.06 µM. Moreover, the TGI in test [1] was greater than 100 µM; in [2] it was 33.9 µM; in test [3], greater than 100 µM; in [4], greater than 100 µM; in test [5], 16.9 µM; in test [6], 79 µM. The TGI in [7] was determined as 22.4 µM; in [8] it was 48.6 µM; in [9], 23.4 µM; in [10], 27.4 µM.
For `C[C@H]1c2ccccc2CN1CCCOc1cc2c(cc1OCC1CC1)C1(CCCC1)C(N)=N2`, the GI50 in test [1] is 1.94 µM; in test [2] it was 1.8 µM; in [3] it was 1.46 µM; in test [4], 2.66 µM; in [5], 1.21 µM; in test [6], 3.67 µM. The GI50 in test [7] was 0.845 µM; in test [8] it was 1.44 µM; in test [9] it was 1.67 µM; in test [10] it was 0.977 µM. Further, the TGI in test [1] was 7.61 µM; in test [2], 6.69 µM; in test [3], 6.82 µM; in test [4], 8.63 µM; in [5], 3.16 µM; in [6], 10.2 µM. Also, the TGI in test [7] amounted to 1.57 µM; in [8] it was 5.21 µM; in test [9], 5.76 µM; in test [10], 2.31 µM.
Regarding `O=NN(CCCl)C(=O)NC1CCC(=O)NC1=O` (centres undefined), the TGI is 811 µM in [1]; greater than 1250 µM in [2]; 304 µM in [3]; 1060 µM in test [4]; 359 µM in test [5]; 505 µM in [6]. In addition, the TGI in [7] was 279 µM; in test [8], 674 µM; in [9], 442 µM; in test [10], 270 µM.
